Publication PMC11971306, “Enzymatic Birch reduction via hydrogen atom transfer at [4Fe-4S]-OH2 and [8Fe-9S] clusters” (Nature Communications, 2025)

Experiments:
[1] = biological target: T1, BzdNO (Azoarcus sp. CIB, UniProt Z9PSW1D6O9); assay: X-ray crystallography, no ligand added; assay type: binding; conditions: weakly occupied, co-purified; partially CoA-free state
T1 construct: BzdN + BzdO heterodimer (catalytic dimer of class I benzoyl-CoA reductase, BZD type) without BzdPQ; C-terminal Strep-tag on BzdO; anaerobic purification; about 95 kDa theoretical, 107 kDa by SEC; BzdN to residue 376, BzdO to residue 442 (domain borders); with Benzoyl-CoA reductase subunit BzdN
T1 sequence (Z9PSW1D6O9 1-437): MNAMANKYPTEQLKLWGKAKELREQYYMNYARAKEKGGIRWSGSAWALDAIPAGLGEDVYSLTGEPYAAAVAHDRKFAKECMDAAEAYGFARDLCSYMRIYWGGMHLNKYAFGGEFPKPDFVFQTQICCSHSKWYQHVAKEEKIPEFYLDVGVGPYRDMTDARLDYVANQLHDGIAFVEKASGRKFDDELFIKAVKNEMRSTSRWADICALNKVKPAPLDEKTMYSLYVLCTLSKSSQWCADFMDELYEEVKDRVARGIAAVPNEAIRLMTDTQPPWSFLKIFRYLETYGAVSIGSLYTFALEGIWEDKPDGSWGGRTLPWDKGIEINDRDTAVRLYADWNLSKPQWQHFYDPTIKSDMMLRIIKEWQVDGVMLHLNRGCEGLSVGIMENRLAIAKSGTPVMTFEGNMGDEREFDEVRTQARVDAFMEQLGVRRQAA
T1 sequence (Z9U3P4NCS5 1-379 partner): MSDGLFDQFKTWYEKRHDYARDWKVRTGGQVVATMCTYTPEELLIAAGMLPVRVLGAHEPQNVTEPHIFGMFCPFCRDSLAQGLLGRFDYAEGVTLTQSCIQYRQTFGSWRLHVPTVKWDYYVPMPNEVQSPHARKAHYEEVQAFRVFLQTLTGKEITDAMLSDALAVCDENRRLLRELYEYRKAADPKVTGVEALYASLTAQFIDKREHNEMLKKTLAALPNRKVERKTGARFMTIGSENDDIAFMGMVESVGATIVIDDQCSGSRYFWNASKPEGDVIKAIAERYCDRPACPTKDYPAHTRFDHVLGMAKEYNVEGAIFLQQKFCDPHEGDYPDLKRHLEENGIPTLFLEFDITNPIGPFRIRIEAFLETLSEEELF

[2] = biological target: T1, BzdNO; assay: X-ray crystallography, co-crystal; assay type: binding; conditions: 1.4 Å; 5 mM compound, pH 7.5, anaerobic; non-covalent; active site channel of BzdO in front of [4Fe-4S]-OH2 cluster
[3] = biological target: T1, BzdNO; assay: X-ray crystallography, co-crystal; also turnover in reverse reaction; assay type: binding; conditions: 5 mM compound, pH 7.5, anaerobic; non-covalent; same site as benzoyl-CoA; substrate of the reverse, viologen-dependent rearomatization
[4] = biological target: T1, BzdNO; assay: rearomatization of dienoyl-CoA to benzoyl-CoA, UPLC; assay type: biochemical; conditions: artificial electron acceptor 0.5 mM; 0.2 mM dienoyl-CoA, pH 8.8, 30 °C, anaerobic

`CC(C)(COP(=O)(O)OP(=O)(O)OC[C@H]1O[C@@H](n2cnc3c(N)ncnc32)[C@H](O)[C@@H]1OP(=O)(O)O)[C@@H](O)C(=O)NCCC(=O)NCCS` [CoA] was tested, and the “X-ray crystallography, no ligand added” value [1] was “appears to contain besides several solvent molecules a weakly occupied CoA ligand”.

With `CC(C)(COP(=O)(O)OP(=O)(O)OC[C@H]1O[C@@H](n2cnc3c(N)ncnc32)[C@H](O)[C@@H]1OP(=O)(O)O)[C@@H](O)C(=O)NCCC(=O)NCCSC(=O)c1ccccc1` [benzoyl-CoA] the “X-ray crystallography, co-crystal” value [2] was “determined in a BzCoA bound (pdb 8SO2), dienoyl-CoA bound (pdb 8S1T)”.

With `CC(C)(COP(=O)(O)OP(=O)(O)OC[C@H]1O[C@@H](n2cnc3c(N)ncnc32)[C@H](O)[C@@H]1OP(=O)(O)O)[C@@H](O)C(=O)NCCC(=O)NCCSC(=O)C1=CCCC=C1` [dienoyl-CoA, cyclohexa-1,5-diene-1-carbonyl-CoA] the “X-ray crystallography, co-crystal; also turnover in reverse reaction” value [3] was “BzdNO in complex with the product dienoyl-CoA reveals the identical binding mode as the substrate”.

With `C[n+]1ccc(-c2cc[n+](C)cc2)cc1` [methyl viologen] the “rearomatization of dienoyl-CoA to benzoyl-CoA, UPLC” value [4] was “methyl viologen-dependent rearomatization of dienoyl-CoA to BzCoA”.
